{"source": "patent US20150216182A1", "about": "“COMPOSITIONS AND METHODS OF THE ATTRACTION AND REPULSION OF INSECTS” (Olfactor Laboratories, Inc., priority 2012, published 2015)", "key": {"[1]": {"test_system": "Aedes aegypti", "assay": "landing assay", "type": "in vivo", "settings": "mesh treated with 1% in acetone, FIG. 2", "text": "Behavior assays were developed to aid in the evaluation of compounds and compositions of the present invention. These assays include the landing assay and the netsphere assay. These assays were utilized to determine the effectiveness of said compounds and compositions with regard to attracting or repelling mosquitoes of the species Aedes aegypti. Due to the highly conserved nature of the carbon dioxide receptor across the order Diptera, the results obtained for Aedes aegypti are likely to be intuitive with regard to other members of the mosquito family Culicidae as well as with regard to other dipteran family members.\nThe landing assay is an assay used to test for attraction toward human skin. A human gloved hand with an opening cutout protected by 2 layers of mesh was inserted into a 12×12×12 inch cage of female mosquitoes. The first layer of mesh was used to protect the human from chemical contact as well as mosquito contact. A second layer of mesh was treated with a chemical compound or composition that had been dissolved at a concentration of 1% in acetone and allowed to dry on said mesh for three minutes. This second layer of mesh was placed on top of the first mesh layer. The two mesh layers were separated by outer magnetic strips to hold the layers in place on the glove. This experimental design allows the test subjects, starved female mosquitoes, to be exposed to human skin odors as well as the compound or composition concurrently. The cage contained 30 female and 3 male mosquitoes. The landing of mosquitoes on the treated surface was videotaped over a 5 minute time course and the number of landings during that time period was recorded. Mesh treated with acetone alone was used as a negative control. This experiment was done in triplicate for each compound or composition tested. The results from one such experiment are pictured in FIG. 2."}, "[2]": {"test_system": "Aedes aegypti mosquitoes", "assay": "netsphere assay", "type": "in vivo", "settings": "baited BG-Sentinel trap, overnight collection; FIG. 3", "description": "The netsphere assay was conducted in a semi-field containment area. The containment area was 1,000 square feet in size and environmental cues such as temperature, humidity, lighting and airflow were controlled to replicate conditions that Aedes aegypti mosquitoes would encounter in the wild. The containment area was conditioned for 2 hours prior to experimentation to allow for equalization of environmental conditions. Fifty female and five male mosquitoes were then released into the chamber and given one hour to acclimate to the environment. Following this, a BG-Sentinel trap (Biogents AG, Regensburg, Germany) was baited with either cyclopentanone, 2-pentanone or 2,4-lutidine and placed in the chamber in the presence of a non-baited BG-Sentinel (as a negative control for trap attraction). The collection was allowed to proceed overnight during which lighting conditions in the chamber were set to mimic those of starlight. The following day, mosquitoes caught in the trap were frozen at −20° C. and counted. These counts were compared to control experiments where CO2 from a tank, at a flow rate of 250 ml/min, was used as bait."}, "[3]": {"test_system": "larvae", "assay": "larvicidal activity assay", "type": "in vivo", "settings": "24 h", "description": "A 6-well plate (Corning Life Sciences, Tewksbury, Mass.) is used to test a compound's larvicidal activity. […] After a 24 hour exposure, the number of dead larvae are counted and recorded.\nThe results are presented in Table 17 as % lethality (the number of dead larvae divided by the total number of larvae)."}, "[4]": {"test_system": "female mosquitoes", "assay": "whole plant or invertebrate", "settings": "2 h"}, "[5]": {"test_system": "bed bugs", "assay": "bed bug luring assay", "type": "in vivo", "settings": "cottonball with 100 microliters solution, total 100 mg compound(s), 10 bed bugs, overnight", "description": "Assays were conducted to measure the ability of compounds and compound combinations to attract bed bugs. A testing arena habitat comprising a small plastic container was placed inside of a larger, secondary container. The top half inch was removed from two bathroom sized solo cups and each cup was placed on opposite sides of the testing arena habitat, one inch away from the wall. Each outer part of the cup was textured using sandpaper, as bed bugs cannot climb smooth surfaces. A paper towel was used to line the floor of the testing arena habitat. The top, removed portion of one of the solo cups was placed mouth side down in the center of the arena. In one of the cups, a cottonball was placed and treated with 100 microliters of compound or compound combination solution [comprising a total of 100 mg of compound(s).] 10 bed bugs were placed within the center cut off cup top and the testing arena habitat was covered and placed within a dark, climate controlled room overnight. The next day, the number of bed bugs that crawled into the baited cup were recorded and the % attractancy was calculated as the percentage of bugs that crawled into the baited cup as compared to the total number of bed bugs. In the Table, “Att” refers to attractancy and “Cmpd” refers to compound."}, "[6]": {"test_system": "cpA neurons", "assay": "extracellular single-sensillum electrophysiology: activation of cpA neuronal activity"}}, "note": "“Also recorded” adds a separate entry of the source.", "data": [{"smiles": "CCCC(C)=O", "note": "[OLI0018, 2-pentanone]", "values": [{"measurement": "number of landings", "setting": "[1]; 5 minute time course", "value": 37, "unit": "landings"}, {"measurement": "behaviour in landing assay (lure or repellent)", "setting": "[1]", "value": "act as lures"}, {"measurement": "behaviour in netsphere assay (attractant or repellent)", "setting": "[2]", "value": "act as attractants; also recorded: attract mosquitoes"}, {"measurement": "pest or weed control at 100 ppm", "setting": "[3]; read-out: % Lethality at 100 ppm", "value": 0, "unit": "%"}, {"measurement": "pest or weed control at 0.25 %", "setting": "[3]; read-out: % Lethality with 0.25% compound conc.", "value": 0, "unit": "%"}, {"measurement": "mortality at 200 µg/mL", "setting": "[4]; read-out: % mortality with 0.2 mg/ml", "value": 0, "unit": "%"}, {"measurement": "mortality at 2000 µg/mL", "setting": "[4]; read-out: % mortality with 2 mg/ml", "value": 0, "unit": "%"}, {"measurement": "% Att (bed bug attractancy)", "setting": "[5]", "value": 30, "unit": "%"}, {"measurement": "Class", "setting": "[6]; Table 6, single compounds, increase over baseline cpA neuronal activity", "value": "Moderate Activator (Moderate activators yield an increase in neuronal activity that is between 40 and 60 spk/sec over baseline neuronal activity)"}, {"measurement": "Comp A Class", "setting": "[6]; Table 9, component A tested individually", "value": "Mod"}, {"measurement": "Comp B Class", "setting": "[6]; Table 9, component B tested individually", "value": "Mod"}, {"measurement": "Class B (activator class of the individual component)", "setting": "[6]; Table 15, single component alone, Mod Actv", "value": "Mod"}]}]}
